Publication PMC6458983 (Cancer Chemotherapy and Pharmacology, 2019)
Read-outs that look alike come from different tables or passages of the source.

How the values were obtained:
[1] = cited from earlier work
[2] = sustained elevation of gastric pH; cited from earlier work
[3] = Predicted gefitinib exposure (empirical Bayesian estimates), inter- and intra-patient comparison with/without ILD; type: in vivo, Japanese patients with NSCLC; settings: human, plasma, oral, 250 mg
Description: (§1) When estimating the exposure at first dosing and at steady state, time-dependent pharmacokinetics were not assumed. Thus, both exposures at first dosing and steady state can be theoretically derived if at least one plasma concentration at either first dosing or steady state is available. Individual exposures were predicted based on patients’ dosing history, assuming steady state at 144 h after the first dosing. […] Serum concentration of AGP were likewise determined at first dosing and at steady state.
AUC0–24 and Cmax were chosen as exposure metrics.

[4] = system: Japanese patients with NSCLC
Description: Area under the plasma concentration–time curve from 0 to 24 h (AUC0–24) and maximum plasma concentrations (Cmax) were calculated using empirical Bayesian estimates of pharmacokinetic parameters in the final population pharmacokinetic model. AUC0–24 and Cmax were chosen as exposure metrics. The incidence of ILD was summarized for four exposure levels, defined using exposure quartiles after a single dose and at steady state, respectively.
After a single dose, predicted pharmacokinetic values were available for all 51 patients with ILD and all 285 patients without ILD. […] Each pharmacokinetic parameter was quartiled separately.

[5] = Population pharmacokinetic analysis of gefitinib plasma concentrations (NONMEM, one-compartment model); type: in vivo, Japanese patients with NSCLC
Description: Six blood samples were taken from each patient at 1–3, 3–8, and 24 h after first treatment dosing (Day 1) and at steady state (Days 10–15). In addition, blood samples were taken from each patient with ILD, if possible, when ILD developed. […] In total, data for 1891 plasma concentrations taken from 336 patients were used for population pharmacokinetic modeling.
as §1
The population pharmacokinetic analysis was performed using the non-linear mixed-effect modeling (NONMEM) program version V level 1.1 with the PREDPP library and the NM-TRAN pre-processor (GloboMax LLC, Hanover, MD, USA). Full details of the population pharmacokinetic model development and analysis are described in the Online Resource.
The population pharmacokinetic analysis was performed using the NONMEM program version V level 1.1 with the PREDPP library and the NM-TRAN pre-processor (GloboMax LLC, Hanover, MD).
Following preliminary modeling to build a base model, log-transformed plasma concentrations were used for the analysis, and a one-compartment model after first-order absorption with lag-time was selected as the structural model. The first-order method was adopted as an approximation in integral of marginal likelihood. The inter-individual variability on pharmacokinetic parameters was described using an exponential error model, and the intra-individual variability on log-transformed plasma concentration was described using an additive error model.
The covariate model was developed based on the forward addition method and the backward deletion method. Continuous covariates such as body weight, age, sex, α1-acid glycoprotein (AGP), serum albumin, total protein, aspartate aminotransferase, alanine aminotransferase, alkaline phosphatase, total bilirubin, and creatinine clearance were tested using a power model centered on the mean value.
Categorical covariates included were age group (<65 years or ≥65 years), concomitant use of cytochrome P450 3A4 (CYP3A4) inducers, concomitant use of CYP3A4 inhibitors, and concomitant use of proton pump inhibitors and/or H2 antagonists. In addition, interstitial lung disease (ILD) status (i.e. “patients with ILD” vs “patients without ILD”) and ILD period (i.e. “at times other than ILD development” vs “at the time of ILD development”) were tested using a productive multiplicative model with the discrete variable (0 or 1).
χ^2 tests with one degree of freedom based on the objective function value (OFV) in NONMEM, which corresponds to -2-fold of log-likelihood, were used for developing the covariate model, and the adopted statistically significant levels were p=0.05 (ΔOFV=3.84) and p=0.001 (ΔOFV=10.83) when a covariate was included and excluded from the pharmacokinetic model, respectively.
Goodness-of-fit plots were used for diagnosis of the final model. The robustness of the final model was evaluated by a randomized non-stratified bootstrap technique with 200 resampling datasets, and model predictability was examined by visual predictive check.

CYP3A4 = settings: in vitro and in vivo studies; cited from earlier work
[6] = system: Japanese patients with NSCLC; experiment: Multivariate logistic regression of ILD with gefitinib exposure and other risk factors; type: in vivo; settings: Analysis 1 (PK parameter AUC0–24, single dose)
Description: Patients with and without ILD, in whom pharmacokinetic measurements were available, were included in this analysis. […] A multivariate logistic regression model was used in this analysis; the analysis was performed using SAS version 9.3. […] In addition, the interaction of smoking history and normal lung coverage, and the interaction of the severity of pre-existing ILD and normal lung coverage were also studied. In addition, pharmacokinetic exposure parameters were divided into four quartiles (see “Results”) and investigated as risk factors. For association with ILD risk, the mid-1, mid-2, and high-exposure groups were compared with the low-exposure group.

[7] = after a single dose, third-quartile cut-off of predicted exposure

- Cmax ([3]; after the first dosing, patients with ILD, value printed in box plot Fig. 1a, read-out: Cmax): 214 ng/mL
- Cmax ([3]; after the first dosing, patients without ILD, value printed in box plot Fig. 1a, read-out: Cmax): 157 ng/mL
- AUC(0-t) ([3]; after the first dosing, patients with ILD, Fig. 1b, read-out: AUC0-24): 3970 ng·h/mL
- AUC(0-t) ([3]; after the first dosing, patients without ILD, Fig. 1b, read-out: AUC0-24): 2990 ng·h/mL
- Cmax ([3]; intra-patient (n = 19), at the time of ILD development, Fig. 2a, read-out: Cmax): 679 ng/mL
- AUC(0-t) ([3]; intra-patient (n = 19), at the time of ILD development, Fig. 2b, read-out: AUC0-24): 13600 ng·h/mL
- Cmax ([3]; intra-patient (n = 19), at time other than ILD development (steady state), Fig. 2a, read-out: Cmax): 517 ng/mL
- AUC(0-t) ([3]; intra-patient (n = 19), at time other than ILD development (steady state), Fig. 2b, read-out: AUC0-24): 10100 ng·h/mL
- Cmax ([3]; steady state, 250 mg once daily, patients without ILD, Fig. 1d, read-out: Cmax,ss): 434 ng/mL
- AUC(0-t) ([3]; steady state, patients with ILD, Fig. 1e, read-out: AUC0-24,SS): 10600 ng·h/mL
- Cmax ([3]; steady state, patients with ILD, Fig. 1d, read-out: Cmax,ss): 517 ng/mL
- AUC(0-t) ([3]; steady state, patients without ILD, Fig. 1e, read-out: AUC0-24,SS): 8830 ng·h/mL
- Proportion of patients with ILD, by AUC quartile ([4]; after a single dose, AUC0–24 Quartile 1): 11.9%
- Proportion of patients with ILD, by AUC quartile ([4]; after a single dose, AUC0–24 Quartile 2): 8.3%
- Proportion of patients with ILD, by AUC quartile ([4]; after a single dose, AUC0–24 Quartile 3): 8.3%
- Proportion of patients with ILD, by AUC quartile ([4]; after a single dose, AUC0–24 Quartile 4): 32.1%
- Proportion of patients with ILD, by Cmax quartile ([4]; after a single dose, Cmax Quartile 1): 11.9%
- Proportion of patients with ILD, by Cmax quartile ([4]; after a single dose, Cmax Quartile 2): 8.3%
- Proportion of patients with ILD, by Cmax quartile ([4]; after a single dose, Cmax Quartile 3): 9.5%
- Proportion of patients with ILD, by Cmax quartile ([4]; after a single dose, Cmax Quartile 4): 31.0%
- AUC0–24 lower than or equal to the third quartile [4, 7]: ≤ 3855 ng·h/mL
- Cmax lower than or equal to the third quartile [4, 7]: ≤ 207 ng/mL
- Proportion of patients with ILD, by AUC quartile ([4]; at steady state, AUC0–24,ss Quartile 1): 5.1%
- Proportion of patients with ILD, by AUC quartile ([4]; at steady state, AUC0–24,ss Quartile 2): 7.8%
- Proportion of patients with ILD, by AUC quartile ([4]; at steady state, AUC0–24,ss Quartile 3): 15.4%
- Proportion of patients with ILD, by AUC quartile ([4]; at steady state, AUC0–24,ss Quartile 4): 14.3%
- Proportion of patients with ILD, by Cmax quartile ([4]; at steady state, Cmax,ss Quartile 1): 6.4%
- Proportion of patients with ILD, by Cmax quartile ([4]; at steady state, Cmax,ss Quartile 2): 6.5%
- Proportion of patients with ILD, by Cmax quartile ([4]; at steady state, Cmax,ss Quartile 3): 17.9%
- Proportion of patients with ILD, by Cmax quartile ([4]; at steady state, Cmax,ss Quartile 4): 11.7%
- decrease of CL/F ([5]; at the time of ILD development, population pharmacokinetic analysis): 25.7%
- θ3 ([5]; base in CL/F equation (AGE ≥ 65 term, CL/F declined in elderly)): 0.759
- θ6 ([5]; base in CL/F equation (PERI, at the time of ILD diagnosis)): 0.743
- θ1 ([5]; typical value term of the CL/F equation (equation is drawing C00001), population estimate): 28.6
- θ7 ([5]; typical value term of the V/F equation (equation is drawing C00002), population estimate): 1540
- OR estimate (95% CI) for acute ILD: Duration of NSCLC ≥1 vs <0.5 years [6]: 0.37 (0.14–0.95)
- OR estimate (95% CI) for acute ILD: Interaction of pre-existing IP and normal lung coverage [6]: 0.37 (0.02–6.82)
- OR estimate (95% CI) for acute ILD: Interaction of smoking history and normal lung coverage [6]: 0.6 (0.09–4.12)
Structure (SMILES): COc1cc2ncnc(Nc3ccc(F)c(Cl)c3)c2cc1OCCCN1CCOCC1 [gefitinib]
- increase of AUC of gefitinib ([1]; gefitinib 250 mg in the presence of itraconazole): 78%
- increase of AUC of gefitinib ([1]; gefitinib 500 mg in the presence of itraconazole): 61%
- decrease of bioavailability [2]: 47%
- θ5 ([5]; exponent in CL/F equation (body weight term)): 0.503
- enzyme involved in the metabolic clearance (CYP3A4): CYP3A4 is the major enzyme
